{"source": "patent US7384916B2", "about": "“Methods and compositions for preventing and treating aging or photodamaged skin” (ProCyte Corporation, priority 2005, dated 2008)", "assay_type_in_all_cases": "cell-based", "key": {"[1]": {"system": "Normal human dermal fibroblasts", "experiment": "Stimulation of collagen type I formation in fibroblasts (sandwich ELISA of culture media)", "settings": "for ELISA Collagen Type I / ELISA Collagen Type I (% Increase): 3 days; for ELISA Collagen Type I: low glucose media with 2% serum, control 48; for ELISA Collagen Type I (% Increase): vs 0 ug/ml control", "description": "The effect of peptide manganese complexes on collagen formation was determined by determining the amount of collagen type I produced by human fibroblasts in cell culture. Normal human dermal fibroblasts were seeded into a 96-well cell culture plate and grown to confluence in high glucose media supplemented with 10% fetal calf serum for 3 days. The fibroblasts were then placed in low glucose media with 2% serum and various amounts of a representative peptide manganese complex. After 3 days, the culture media was collected and analyzed for collagen type I content by a sandwich ELISA assay using purified antibody to collagen type I."}, "[2]": {"system": "Normal human dermal fibroblasts", "experiment": "Viability of dermal fibroblasts (neutral red stain)", "settings": "for Neutral Red Stain - Cell Viability: 3 days, control 212", "description": "(§1) The effect of peptide manganese complexes on the growth and viability of fibroblasts was determined. Normal human dermal fibroblasts were seeded into a 96-well cell culture plate and grown to confluence in high glucose media supplemented with 10% fetal calf serum for 3 days. The fibroblasts were then placed in low glucose media with 2% serum and various amounts of a representative peptide manganese complex. After 3 days, the cells were incubated with neutral red to assess their viability and stained with sulforhodamin B and counted to determine the number of cells."}, "[3]": {"system": "Normal human dermal fibroblasts", "experiment": "Proliferation of dermal fibroblasts (sulforhodamin B stain, cell number)", "settings": "for Sulforhodamin B Stain - Cell Number / Sulforhodamin B Stain - Cell Number (% Increase): 3 days; for Sulforhodamin B Stain - Cell Number: control 313; for Sulforhodamin B Stain - Cell Number (% Increase): vs 0 ug/ml control", "description": "as §1"}}, "data": [{"substance": "glycyl-L-histidyl-L-lysine:manganese(II)", "values": [{"measurement": "ELISA Collagen Type I", "setting": "[1]; 10 ug/ml complex", "value": 61.5}, {"measurement": "ELISA Collagen Type I (% Increase)", "setting": "[1]; 10 ug/ml complex", "value": "+28%"}, {"measurement": "ELISA Collagen Type I", "setting": "[1]; 100 ug/ml complex", "value": 102.5}, {"measurement": "ELISA Collagen Type I (% Increase)", "setting": "[1]; 100 ug/ml complex", "value": "+129%"}, {"measurement": "Effect on formation of collagen type I (in words)", "setting": "[1]; summary of Table 4", "value": "stimulated the formation of collagen type I"}, {"measurement": "Neutral Red Stain - Cell Viability", "setting": "[2]; 10 ug/ml complex", "value": 231}, {"measurement": "Neutral Red Stain - Cell Viability", "setting": "[2]; 100 ug/ml complex", "value": 253}, {"measurement": "Effect on viability of normal human dermal fibroblasts (in words)", "setting": "[2]; summary of Table 6", "value": "increased their viability"}, {"measurement": "Sulforhodamin B Stain - Cell Number", "setting": "[3]; 10 ug/ml complex", "value": 383}, {"measurement": "Sulforhodamin B Stain - Cell Number (% Increase)", "setting": "[3]; 10 ug/ml complex", "value": "+22%"}, {"measurement": "Sulforhodamin B Stain - Cell Number", "setting": "[3]; 100 ug/ml complex", "value": 535}, {"measurement": "Sulforhodamin B Stain - Cell Number (% Increase)", "setting": "[3]; 100 ug/ml complex", "value": "+71%"}, {"measurement": "Effect on proliferation of normal human dermal fibroblasts (in words)", "setting": "[3]; summary of Table 5", "value": "stimulated the proliferation"}]}]}
